# Test results taken from ChEMBL document CHEMBL4732050, “1,2,4-Oxadiazole topsentin analogs as staphylococcal biofilm inhibitors targeting the bacterial transpeptidase sortase A” (Eur J Med Chem, 2021).
# Tests used:
# [1] = test system: Escherichia coli; test: Antibiofilm activity against Escherichia coli ATCC 25922 at 100 ug/ml after 24 hrs by crystal violet staining based assay; type: functional
# [2] = test system: Pseudomonas aeruginosa; test: Antibiofilm activity against Pseudomonas aeruginosa ATCC 15442 at 100 ug/ml after 24 hrs by crystal violet staining based assay; type: functional
# [3] = test system: Staphylococcus aureus; test: Antibiofilm activity against Staphylococcus aureus ATCC 25923 at 100 ug/ml after 24 hrs by crystal violet staining based assay; type: functional
# [4] = test system: Escherichia coli; test: Antibacterial activity against Escherichia coli ATCC 25922 after 24 hrs by microdilution method; type: functional
# [5] = test system: Staphylococcus aureus; test: Antibiofilm activity against Staphylococcus aureus ATCC 6538 at 100 ug/ml after 24 hrs by crystal violet staining based assay; type: functional
# [6] = test system: Staphylococcus aureus; test: Antibacterial activity against Staphylococcus aureus ATCC 25923 after 24 hrs by microdilution method; type: functional
# [7] = test system: Staphylococcus aureus; test: Antibacterial activity against Staphylococcus aureus ATCC 6538 after 24 hrs by microdilution method; type: functional
# [8] = test system: Pseudomonas aeruginosa; test: Antibacterial activity against Pseudomonas aeruginosa ATCC 15442 after 24 hrs by microdilution method; type: functional
# [9] = test system: Staphylococcus aureus; test: Antibiofilm activity against Staphylococcus aureus ATCC 25923 after 24 hrs by crystal violet staining based assay; type: functional
# [10] = test system: Pseudomonas aeruginosa; test: Antibiofilm activity against Pseudomonas aeruginosa ATCC 15442 after 24 hrs by crystal violet staining based assay; type: functional
# [11] = Inhibition of Staphylococcus aureus ATCC 25923 sortase A by FRET assay
# [12] = test system: HS27; test: Cytotoxicity against human Hs27 cells assessed as cell viability at 0.1 to 1 uM after 72 hrs by SRB assay; type: cell-based; conditions: hs27, 72 h, dose 0.1-1 µM
# [13] = test system: Staphylococcus aureus; test: Antibiofilm activity against Staphylococcus aureus ATCC 6538 after 24 hrs by crystal violet staining based assay; type: functional
# [14] = test system: Escherichia coli; test: Antibiofilm activity against Escherichia coli ATCC 25922 after 24 hrs by crystal violet staining based assay; type: functional
SMILES,inhibition at 100 µg/mL [1] [%],inhibition at 100 µg/mL [2] [%],inhibition at 100 µg/mL [3] [%],MIC [4] [µg/mL],inhibition at 100 µg/mL [5] [%],MIC [6] [µg/mL],MIC [7] [µg/mL],MIC [8] [µg/mL],MBIC50 [9] [µM],MBIC50 [10] [µM],IC50 [11] [nM],Activity [12],MBIC50 [13] [µM],MBIC50 [14] [µM]
COc1ccc2c(c1)c(C(=O)c1nc(-c3cn(C)c4ccc(Cl)cc34)no1)cn2C,< 15,< 15,< 15,> 100,< 15,> 100,> 100,> 100,–,–,–,–,–,–
Cn1cc(C(=O)c2nc(-c3cn(C)c4ccc(F)cc34)no2)c2ccccc21,< 15,–,–,> 100,< 15,> 100,> 100,> 100,30.4,24,–,–,–,–
Cn1cc(C(=O)c2nc(-c3cn(C)c4ccc(Br)cc34)no2)c2cc(F)ccc21,< 15,< 15,–,> 100,< 15,> 100,> 100,> 100,9.7,–,2200,Non-Toxic,–,–
COc1ccc2c(c1)c(C(=O)c1nc(-c3cn(C)c4ccc(Br)cc34)no1)cn2C,< 15,< 15,–,> 100,< 15,> 100,> 100,> 100,41,–,–,–,–,–
Cn1cc(C(=O)c2nc(-c3cn(C)c4ccc(Br)cc34)no2)c2ccccc21,< 15,–,< 15,> 100,< 15,> 100,> 100,> 100,–,78.6,–,–,–,–
COc1ccc2c(c1)c(-c1noc(C(=O)c3cn(C)c4ccc(Br)cc34)n1)cn2C,< 15,–,–,> 100,< 15,> 100,> 100,> 100,19.1,28.1,–,–,–,–
Cn1cc(C(=O)c2nc(-c3cn(C)c4ccc(Cl)cc34)no2)c2cc(Br)ccc21,< 15,–,–,> 100,< 15,> 100,> 100,> 100,27.7,53.9,–,–,–,–
Cn1cc(C(=O)c2nc(-c3cn(C)c4ccccc34)no2)c2ccccc21,–,–,–,> 100,–,> 100,> 100,> 100,14,36.7,–,–,53.6,72.1
COc1ccc2c(c1)c(-c1noc(C(=O)c3cn(C)c4ccc(F)cc34)n1)cn2C,< 15,–,–,> 100,< 15,> 100,> 100,> 100,14.8,52.1,–,–,–,–
Cn1cc(C(=O)c2nc(-c3cn(C)c4ccc(F)cc34)no2)c2cc(Br)ccc21,–,< 15,–,> 100,< 15,> 100,> 100,> 100,29.6,–,–,–,–,45.7
COc1ccc2c(c1)c(C(=O)c1nc(-c3cn(C)c4ccc(OC)cc34)no1)cn2C,< 15,–,–,> 100,< 15,> 100,> 100,> 100,2.2,74.7,2200,Non-Toxic,–,–
COc1ccc2c(c1)c(C(=O)c1nc(-c3cn(C)c4ccccc34)no1)cn2C,–,–,–,> 100,< 15,> 100,> 100,> 100,33.1,30,–,–,–,55.4
COc1ccc2c(c1)c(C(=O)c1nc(-c3cn(C)c4ccc(F)cc34)no1)cn2C,< 15,–,–,> 100,< 15,> 100,> 100,> 100,39.6,11.6,–,–,–,–
COc1ccc2c(c1)c(-c1noc(C(=O)c3cn(C)c4ccccc34)n1)cn2C,< 15,–,< 15,> 100,< 15,> 100,> 100,> 100,–,47.4,–,–,–,–
Cn1cc(C(=O)c2nc(-c3cn(C)c4ccccc34)no2)c2cc(Br)ccc21,–,–,–,> 100,< 15,> 100,> 100,> 100,39.5,39.3,–,–,–,39.3
Cn1cc(C(=O)c2nc(-c3cn(C)c4ccc(F)cc34)no2)c2cc(F)ccc21,< 15,–,–,> 100,< 15,> 100,> 100,> 100,0.7,49.7,10400,Non-Toxic,–,–
Cn1cc(C(=O)c2nc(-c3cn(C)c4ccc(Cl)cc34)no2)c2ccccc21,–,–,–,> 100,< 15,> 100,> 100,> 100,47.6,53.5,–,–,–,59.6
